Data taken from BigSolDB 2.1.

OC[C@H]1O[C@H](O[C@H]2O[C@H](CO)[C@@H](O)[C@H](O)[C@H]2O)[C@H](O)[C@@H](O)[C@@H]1O
solubility (mole fraction)
Conditions | 288.15 K | 293.15 K | 298.15 K | 303.15 K | 308.15 K | 313.15 K | 318.15 K
in ethanol | 0.000652 | 0.000701 | 0.000778 | 0.000852 | 0.000905 | 0.000989 | 0.00108
in water | 0.0344 | 0.0381 | 0.0437 | 0.0545 | 0.0636 | 0.0683 | 0.114
